Several values for one entry are separate records, joined by “and”; a condition that tells them apart may be missing. Identical values can stand only once.

The data set relates to IL-1α release from NCTC 2544 cells. The data set can be described thus: IL-1α release assay (ELISA). In kind it is cell-based, human. The method, then:
NCTC 2544 cells were seeded and treated with various concentrations of DHNA or dithranol for 72 h. After incubation, the microplate was centrifuged and conditioned medium was collected to determine the extracellular IL-1α (IL-1α release) using an IL-1α ELISA kit (Diaclone Research, France). All other steps were then according to the manufacturer's protocol. Results were expressed in pg/mL.

Turning to `O=C(O)c1cc(O)c2ccccc2c1O` [DHNA, 1,4-dihydroxy-2-naphthoic acid], the “IL-1α release at IC50 on NCTC 2544 keratinocytes” value (46.80 μM or 9.56 μg/mL, 72 h) is reported as “no significant IL-1α was released”. Also, the “higher concentration needed for IL-1α release than dithranol” value (NCTC 2544, 72 h, DHNA versus dithranol) is reported as ~ 30 times. Further, the “concentration at which IL-1α release is significantly induced” value (NCTC 2544, 72 h, versus vehicle control) was 60 μM and 12.25 μg/mL.

The record behind these values is publication PMC3638593, “1,4-dihydroxy-2-naphthoic Acid Induces Apoptosis in Human Keratinocyte: Potential Application for Psoriasis Treatment” (Evidence-based Complementary and Alternative Medicine : eCAM, 2013).
